Patent publication US6746663B2, “Porphyrin compounds” (Photochemical Co., Ltd., priority 1999, dated 2004)
Where a name gives a salt, the structure may show the parent alone.

Experiments:
[1] = Photosensitizing oxidation reaction using Dansyl methionine; conditions: for Degree of Photo Reaction (reaction end time): 0.1 μM photosensitizer, 10 μM Dansyl methionine in chloroform, halogen lamp irradiation, time until Dansyl methionine disappeared on TLC, smaller = stronger
Experimental: (§1) Albumin test is a test method for evaluating the affinity to cancerous tissues, in which a chlorin derivative is examined on the change in ultraviolet (UV) absorption spectrum in a mixture form with albumine, and dancyl methionine test is also a convenient test method for evaluating the strength of the photoreactivity by thin layer chromatography (TLC) or high performance liquid chromatography (HPLC) (see Japanese Patent Application Laid-open No. 5-97857).
To 1 ml of chloroform, 10 μM of Dansyl methionine, a substrate, was added, and then 0.1 μM of the photosensitizer of the present invention [sodium salt of NOEt-P-Asp(I)] was further added. Laser irradiation was conducted using Cold Spot PICL-SX (Nippon P.I. Co., Ltd.) which is halogen lamp, has 150 W wave length and 80,00 Lux, under stirring. The reaction solution was spotted at every minute on TLC plate (Kieselgel 60F254), and developed with chloroform methanol (3:2), then Dansyl methionine and its oxide (Dansylmethionine sulfoxide) were confirmed using UV lamp (254 nm). The time that Dansylmethionine disappeared completely on TLC plate was stated as the end of the reaction time, and photo oxidation reaction of photosensitizer was compared.
Photofrin II (Trade Mark) was used as a control of photosensitizer of present invention.

[2] = system: tumor tissues of colon cancer Colon 26; assay: Evaluation on tissue accumulability (cancer/organ concentration by surface fluorescence); type: in vivo; conditions: 10 mg/kg intravenous, 3H/He mice bearing Colon 26, 1 to 24 hours after administration, FIG. 2
Experimental: In the graph, the curve No.1 represents the result of cancer/brain, the curve No.2 represents the result of cancer/liver, the curve No.3 represents the result of cancer/lung, the curve No.4 represents cancer/muscle, the curve No.5 represents cancer/kidney, and the curve No.6 represents cancer/plasma.
3H/He mice (5 per group) implanted with tumor tissues of colon cancer Colon 26 for 14 to 21 days, were given an intravenous injection of sodium salt of each of NOEt-P-Asp(I) (10 mg/kg for each mouse) which had been diluted with a distilled water for injection. The blood samples were collected and the organs bearing the tumor tissue were extirpated after the injection, irradiated with N2-pulsed laser (N2, wavelength: 337 nm, 2 ns, 400-1,000 nm), and the excited fluorescent spectrum was measured. The wavelength in the range of 600 to 900 nm was examined based on the peak wavelength of NADH at 470 nm (determination of the distribution of the test compound in the organ by the surface fluorescence method using N2-pulsed laser spectrophotometry). That is, the distributed concentration of sodium salt of NOEt-P-Asp(I) in cancer/organ (or plasma) ratio was determined by calculating the peak wavelength at 670 nm when the peak wavelength at 470 nm was considered as the basic value, 1.

albumin = albumin (Homo sapiens, UniProt P02768); assay: Albumin test (change in UV absorption spectrum in mixture with albumin); type: binding
From the text: as §1

Sequence of albumin (P02768 25-609, species assumed): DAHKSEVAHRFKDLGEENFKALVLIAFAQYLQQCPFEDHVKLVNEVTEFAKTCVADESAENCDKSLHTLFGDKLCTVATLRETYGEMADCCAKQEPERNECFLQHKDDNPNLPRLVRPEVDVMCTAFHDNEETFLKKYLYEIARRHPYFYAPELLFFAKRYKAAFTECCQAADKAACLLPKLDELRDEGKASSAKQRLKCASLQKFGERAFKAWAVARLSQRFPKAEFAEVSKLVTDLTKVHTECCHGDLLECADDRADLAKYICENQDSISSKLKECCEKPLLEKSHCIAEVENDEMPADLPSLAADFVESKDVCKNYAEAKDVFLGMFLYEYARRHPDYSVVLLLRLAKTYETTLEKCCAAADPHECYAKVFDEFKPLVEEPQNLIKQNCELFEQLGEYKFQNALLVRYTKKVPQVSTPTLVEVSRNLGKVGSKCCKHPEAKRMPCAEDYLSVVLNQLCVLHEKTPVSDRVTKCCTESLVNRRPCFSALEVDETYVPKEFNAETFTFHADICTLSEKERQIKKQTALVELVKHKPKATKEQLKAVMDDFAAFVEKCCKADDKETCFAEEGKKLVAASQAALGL

## 13,17-bis[(1,2-dicarboxyethyl)carbamoylethyl]-8-ethenyl-2-hydroxy-3-etoxyiminoethylidene-2,17,12,18-tetramethyl-porphyrin [NOEt-P-Asp(II) Na salt]
[1]
  Degree of Photo Reaction (reaction end time): 4 min

## C=Cc1c(C)c2cc3nc(cc4[nH]c(cc5nc(cc1[nH]2)C(C)(O)C5=CC=NOCC)c(C)c4CCC(=O)NC(CC(=O)O)C(=O)O)C(CCC(=O)NC(CC(=O)O)C(=O)O)=C3C (centres unmarked) [NOEt-P-Asp(I) Na salt, 13,17-bis[(1,2-dicarboxylethyl)carbamoylethyl]-3-ethenyl-7-hydroxy-8-ethoxyiminoethylidene-2,7,12,18-tetramethyl-porphyrin]
[1]
  Degree of Photo Reaction (reaction end time): 4 min
[2]
  accumulability to cancerous tissues (cancer/organ or plasma concentration ratio): much higher accumulability to cancerous tissues

## C=Cc1c(C)c2cc3nc(cc4[nH]c(cc5nc(cc1[nH]2)C(C)(O)C5=CC=NOCC)c(C)c4CCC(=O)NC(CC(=O)O)C(=O)O)C(CCC(=O)NC(CC(=O)O)C(=O)O)=C3C (centres unmarked) [NOEt-P-Asp(I), 13,17-bis[(1,2-dicarboxylethyl)carbamoylethyl]-3-ethenyl-7-hydroxy-8-ethoxyiminoethylidene-2,7,12,18-tetramethyl-porphyrin]
[1]; dancyl methionine test, result in words
  photosensitivity (strength of photoreactivity): strong photosensitivity
albumin
  transferability to cancerous tissues (affinity to cancerous tissues): excellent transferability to cancerous tissues
